Assay results taken from ChEMBL document CHEMBL1130372, “Synthesis and evaluation of putative oxocarbenium intermediate mimic in the KDO8P synthase-catalyzed reaction as a tool for the design of potent inhibitors for lipopolysaccharide biosynthesis” (Bioorg Med Chem Lett, 1997).

Experiment: The inhibitory activity was evaluated against homogeneous KDO 8-P synthase from Escherichia coli by varying PEP at saturating concentrations of A5P (0.5 mM)

SMILES: O=C(O)CN(CC(O)C(O)C(O)[C@H](O)COP(=O)(O)O)CP(=O)(O)O (stereo partly specified)
- Ki: 3.3 µM
